Experimental data from ChEMBL document CHEMBL3414502, “Identification of protein kinase CK2 inhibitors using solvent dipole ordering virtual screening” (Eur J Med Chem, 2015).
The source made the active and inactive calls. The calls are words filed in the database; no cut-off is given here.

How the values were obtained:
Casein kinase II = Casein kinase II (Homo sapiens, UniProt P19784+P67870+P68400); experiment: Inhibition of CK2 kinase (unknown origin) using RRRDDDSDDD as substrate after 10 mins by topcount analysis in presence of [gamma-32P]ATP and 90 uM ATP; format: protein-complex assay
[1] = target: Casein kinase II (Homo sapiens) (UniProt P67870+P68400+P19784); experiment: Competitive inhibition of CK2 kinase (unknown origin) by Lineweaver-Burk plot analysis in presence of ATP; format: protein-complex assay

Compound	IC50 (Casein kinase II) [µM]	competitive inhibition (qualitative) [1]
O=C(COC(=O)c1c[nH]c2ccccc12)Nc1ccc2[nH]c(=O)[nH]c2c1	28.5	
CC(C)(C)c1ccc(C2=N/C(=C/c3ccc(C(=O)O)cc3)C(=O)O2)cc1	13.2	
O=c1oc2ccc([N+](=O)[O-])cc2cc1-c1csc(Nc2ccccc2)n1	8.6	Active
NC(=O)c1nc(-c2ccncc2)nc2c1[nH]c(=O)n2-c1ccc2c(c1)OCO2	19.6	
Nc1nc2ccc(NC(=S)NC(=O)c3cccs3)cc2s1	25.1	
Cc1nn(C)cc1-c1cc(-c2nnc(Nc3ccn(Cc4ccccc4Cl)n3)s2)no1	3.7	Active
COc1ccc(-c2nc3c(sc4nc(C(F)F)cc(C)c43)c(=O)[nH]2)cc1Cn1cc([N+](=O)[O-])cn1	7.7	Active
COc1cc(/C=C2/C(=O)NN(c3ccc(C)c(Cl)c3)C2=O)ccc1OCC(=O)O	28.9	
O=C1OC(c2ccc(-c3ccccc3)cc2)=N/C1=C/c1ccc(C(=O)O)cc1	13.9	
COc1ccc(/C=C2\Oc3cc(OCC(=O)O)ccc3C2=O)cc1OC	6	Active
O=C(O)COc1ccc2c(c1)O/C(=C\c1ccco1)C2=O	11	
O=c1[nH]c(-c2ccc(OCc3ccccc3)cc2)nc2c1cnn2-c1ccccc1	11.1	
COc1ccc(-c2nc(C(N)=O)c3[nH]c(=O)n(-c4ccc(OC)c(OC)c4)c3n2)cc1	50	
Cc1cc(Br)c(N2C(=O)NC(=O)C(/C=N/c3ccc(C(=O)O)c(O)c3)C2=O)cc1C (stereo unspecified)	28.6	
CCC(=O)Nc1nnc(-c2ccc([N+](=O)[O-])cc2)s1	27.9	
Nc1nnc(-c2ccc(C(=O)O)cc2)s1	27.4	
O=C(COC(=O)c1cc(Br)c(Br)s1)Nc1ccc2[nH]c(=O)[nH]c2c1	15.2	
O=c1cc(-c2ccc(O)cc2)oc2c1ccc1ccccc12	9.7	Active
O=c1[nH]n2c(=O)c3c([nH]c2c1/N=N/c1ccccc1Cl)CCC3	3.8	Active
CCOc1cc(-c2nc3c(cnn3-c3ccccc3)c(=O)[nH]2)ccc1O	39.9	
COc1cccc(NC(=O)Nc2nnc(-c3ccc([N+](=O)[O-])cc3)s2)c1	7.6	Active
O=c1[nH]nc(-c2ccco2)c2cn(-c3cccc([N+](=O)[O-])c3)nc12	46.3	
O=C1OC(c2sc3ccccc3c2Cl)=N/C1=C/c1ccc(C(=O)O)cc1	6	
CCOc1ccc(C2=N/C(=C/c3ccc(C(=O)O)cc3)C(=O)O2)cc1	43	
